49 compounds from patent publication US8586617B2, “Aminomethyl-4-imidazoles” (Hoffmann-La Roche Inc., priority 2006, dated 2013) can be followed below.

In this experiment the target is TAAR1 (Mus musculus (Mouse), UniProt Q923Y8). As to the kind of experiment: TAAR1 radioligand binding assay ([3H]-rac-2-(1,2,3,4-tetrahydro-1-naphthyl)-2-imidazoline, membranes of stably transfected HEK293 cells). Particulars: read-out: Ki (μM) mouse; mouse TAAR1; radioligand [3H]-rac-2-(1,2,3,4-tetrahydro-1-naphthyl)-2-imidazoline at 60 nM; 4° C., 30 minutes.
Sequence of TAAR1 (Q923Y8 whole entry): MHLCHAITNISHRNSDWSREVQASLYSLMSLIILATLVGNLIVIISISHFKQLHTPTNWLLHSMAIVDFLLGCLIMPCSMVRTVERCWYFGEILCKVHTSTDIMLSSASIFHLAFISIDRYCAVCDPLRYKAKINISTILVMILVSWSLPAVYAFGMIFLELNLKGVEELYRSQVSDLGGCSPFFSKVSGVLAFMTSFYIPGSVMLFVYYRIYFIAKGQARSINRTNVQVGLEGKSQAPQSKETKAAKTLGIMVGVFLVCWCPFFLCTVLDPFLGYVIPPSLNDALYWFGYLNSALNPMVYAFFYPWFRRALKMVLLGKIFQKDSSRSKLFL
Procedure: The ability of the compounds of the present invention to bind to TAAR1 was investigated in accordance with the test given hereinafter.
For the generation of stably transfected cell lines HEK293 cells were transfected with the pIRESneo2 expression plasmids containing the TAAR coding sequences (described above) with Lipofectamine 2000 (Invitrogen) according to the instructions of the manufacturer, and 24 hours post transfection the culture medium was supplemented with 1 mg/ml G418 (Sigma, Buchs, Switzerland). After a culture period of about 10 days, clones were isolated, expanded and tested for responsiveness to trace amines (all compounds purchased from Sigma) with the cAMP Biotrak Enzyme immunoassay (EIA) System (Amersham) following the non-acetylation EIA procedure provided by the manufacturer.
Cells at confluence were rinsed with ice-cold phosphate buffered saline without Ca^2+ and Mg^2+ containing 10 mM EDTA and pelleted by centrifugation at 1000 rpm for 5 min at 4° C. The pellet was then washed twice with ice-cold phosphate buffered saline and cell pellet was frozen immediately by immersion in liquid nitrogen and stored until use at −80° C. The cell pellet was then suspended in 20 ml HEPES-NaOH (20 mM), pH 7.4 containing 10 mM EDTA, and homogenized with a Polytron (PT 3000, Kinematica) at 10,000 rpm for 10 seconds. The homogenate was centrifuged at 48,000×g for 30 minutes at 4° C. and the pellet resuspended in 20 ml HEPES-NaOH (20 mM), pH 7.4 containing 0.1 mM EDTA (buffer A), and homogenized with a Polytron at 10,000 rpm for 10 seconds. The homogenate was then centrifuged at 48,000×g for 30 minutes at 4° C. and the pellet resuspended in 20 ml buffer A, and homogenized with a Polytron at 10,000 rpm for 10 seconds. […] The homogenate was then centrifuged at 48,000×g for 10 minutes at 4° C., resuspended in HEPES-NaOH (20 mM), pH 7.0 including MgCl2 (10 mM) and CaCl2 (2 ml) (buffer B) at 200 μg protein per ml and homogenized with a Polytron at 10,000 rpm for 10 seconds.
Binding assay was performed at 4° C. in a final volume of 1 ml, and with an incubation time of 30 minutes. […] Non-specific binding was defined as the amount of [^3H]-rac-2-(1,2,3,4-tetrahydro-1-naphthyl)-2-imidazoline bound in the presence of the appropriate unlabelled ligand (10 μM). Competing ligands were tested in a wide range of concentrations (10 pM-30 μM). […] Each experiment was performed in duplicate. All incubations were terminated by rapid filtration through UniFilter-96 plates (Packard Instrument Company) and glass filter GF/C, pre-soaked for at least 2 h in polyethylenimine 0.3%, and using a Filtermate 96 Cell Harvester (Packard Instrument Company). The tubes and filters were then washed 3 times with 1 ml aliquots of cold buffer B. Filters were not dried and soaked in Ultima gold (45 D/well, Packard Instrument Company) and bound radioactivity was counted by a TopCount Microplate Scintillation Counter (Packard Instrument Company).
In general, Ki refers to a measure of affinity in units of concentration, obtained from inhibition or displacement. `CCN(Cc1cnc[nH]1)c1cccc(C)c1` [Example 6, Ethyl-(3H-imidazol-4-ylmethyl)-m-tolyl-amine]: the Ki was 0.0018 µM. Turning to `CN(Cc1cnc[nH]1)c1ccc(Cl)cc1` [Example 10, (4-Chloro-phenyl)-(3H-imidazol-4-ylmethyl)-methyl-amine], the Ki is 0.0045 µM. The value for `Clc1cccc(N(Cc2cnc[nH]2)Cc2ccccc2Cl)c1` [Example 18, (2-Chloro-benzyl)-(3-chloro-phenyl)-(1H-imidazol-4-ylmethyl)-amine] was 0.0039 µM; that for `Clc1cccc(CN(Cc2cnc[nH]2)c2cccc(Cl)c2)c1` [Example 19, (3-Chloro-benzyl)-(3-chloro-phenyl)-(1H-imidazol-4-ylmethyl)-amine] was 0.0077 µM. As for `Clc1ccc(CN(Cc2cnc[nH]2)c2cccc(Cl)c2)cc1` [Example 20, (4-Chloro-benzyl)-(3-chloro-phenyl)-(1H-imidazol-4-ylmethyl)-amine], the figure is 0.0059 µM. The value for `Clc1cccc(N(Cc2ccccc2)Cc2cnc[nH]2)c1` [Example 21, Benzyl-(3-chloro-phenyl)-(1H-imidazol-4-ylmethyl)-amine] was 0.0078 µM. For the compound `CC(C)N(Cc1cnc[nH]1)c1cc(Cl)cc(Cl)c1` [Example 24, (3,5-Dichloro-phenyl)-(3H-imidazol-4-ylmethyl)-isopropyl-amine], the Ki turned out to be 0.001 µM. Turning to `Cc1cccc(N(Cc2cnc[nH]2)C(C)C)c1` [Example 26, (3H-Imidazol-4-ylmethyl)-isopropyl-m-tolyl-amine], the inhibition constant (Ki) amounted to 0.0034 µM. Consider `CC(C)N(Cc1cnc[nH]1)c1cccc(C(F)(F)F)c1` [Example 27, (3H-Imidazol-4-ylmethyl)-isopropyl-(3-trifluoromethyl-phenyl)-amine], for which the inhibitory constant (Ki) amounted to 0.0023 µM. In the case of `CC(C)N(Cc1cnc[nH]1)c1ccc(Cl)c(C(F)(F)F)c1` [Example 31, (4-Chloro-3-trifluoromethyl-phenyl)-(3H-imidazol-4-ylmethyl)-isopropyl-amine], the Ki was 0.0045 µM. The value for `CC(C)N(Cc1cnc[nH]1)c1ccc(OC(F)(F)F)c(Cl)c1` [Example 33, (3-Chloro-4-trifluoromethoxy-phenyl)-(3H-imidazol-4-ylmethyl)-isopropyl-amine] was 0.0028 µM. As for `Clc1cccc(N(Cc2cnc[nH]2)CC2CC2)c1` [Example 51, (3-Chloro-phenyl)-cyclopropylmethyl-(3H-imidazol-4-ylmethyl)-amine], the Ki turned out to be 0.0009 µM. As for `CC(C1CC1)N(Cc1cnc[nH]1)c1cccc(Cl)c1` (stereo not shown) [Example 52, (3-Chloro-phenyl)-(1-cyclopropylethyl)-(3H-imidazol-4-ylmethyl)-amine], the figure is 0.004 µM. The value for `CC(C)N(Cc1cnc[nH]1)c1ccc(F)c(Cl)c1` [Example 53, (3-Chloro-4-fluoro-phenyl)-(3H-imidazol-4-ylmethyl)-isopropyl-amine] was 0.0015 µM.

For the compound `CCN(Cc1cnc[nH]1)c1ccc(Cl)cc1` [Example 57, (4-Chloro-phenyl)-ethyl-(3H-imidazol-4-ylmethyl)-amine], the Ki was 0.0014 µM. As for `CCN(Cc1cnc[nH]1)c1ccc(F)c(F)c1` [Example 58, (3,4-Difluoro-phenyl)-ethyl-(3H-imidazol-4-ylmethyl)-amine], the Ki worked out at 0.0014 µM. For `CC(C)N(Cc1cnc[nH]1)c1ccc(OC(F)(F)F)cc1` [Example 67, (3H-Imidazol-4-ylmethyl)-isopropyl-(4-trifluoromethoxy-phenyl)-amine], the Ki was 0.0067 µM. As for `CC(C)N(Cc1cnc[nH]1)c1ccc2ccccc2c1` [Example 70, (3H-Imidazol-4-ylmethyl)-isopropyl-naphthalen-2-yl-amine], the figure is 0.0082 µM. As for `CC(C)N(Cc1cnc[nH]1)c1ccc2c(c1)CCC2` [Example 73, (3H-Imidazol-4-ylmethyl)-indan-5-yl-isopropyl-amine], the figure is 0.0055 µM; as for `CC(C)N(Cc1cnc[nH]1)c1cc(F)cc(Cl)c1` [Example 76, (3-Chloro-5-fluoro-phenyl)-(3H-imidazol-4-ylmethyl)-isopropyl-amine], 0.0011 µM; as for `CC(C)N(Cc1cnc[nH]1)c1ccc(F)c(F)c1` [Example 77, (3,4-Difluoro-phenyl)-(3H-imidazol-4-ylmethyl)-isopropyl-amine], 0.0053 µM. As for `CC(C)N(Cc1cnc[nH]1)c1cc(Cl)ccc1F` [Example 78, (5-Chloro-2-fluoro-phenyl)-(3H-imidazol-4-ylmethyl)-isopropyl-amine], the figure is 0.0052 µM. Regarding `CCN(Cc1cnc[nH]1)c1cccc(Cl)c1F` [Example 81, (3-Chloro-2-fluoro-phenyl)-ethyl-(3H-imidazol-4-ylmethyl)-amine], the Ki worked out at 0.0036 µM. Turning to `CCN(Cc1cnc[nH]1)c1ccc2ccccc2c1` [Example 82, Ethyl-(3H-imidazol-4-ylmethyl)-naphthalen-2-yl-amine], the Ki is 0.0012 µM. As for `CC(C)N(Cc1cnc[nH]1)c1cc(F)cc(F)c1` [Example 101, (3,5-Difluoro-phenyl)-(3H-imidazol-4-ylmethyl)-isopropyl-amine], the figure is 0.003 µM; as for `COc1c(F)ccc(N(Cc2cnc[nH]2)C(C)C)c1F` [Example 102, (2,4-Difluoro-3-methoxy-phenyl)-(3H-imidazol-4-ylmethyl)-isopropyl-amine], 0.006 µM. As for `Cc1cc(N(Cc2cnc[nH]2)C(C)C)ccc1F` [Example 109, (4-Fluoro-3-methyl-phenyl)-(3H-imidazol-4-ylmethyl)-isopropyl-amine], the figure is 0.0041 µM; as for `CC(C)Oc1cccc(N(Cc2cnc[nH]2)C(C)C)c1` [Example 110, (3H-Imidazol-4-ylmethyl)-(3-isopropoxy-phenyl)-isopropyl-amine], 0.0067 µM; as for `CC(C)N(Cc1cnc[nH]1)c1cccc(OCc2ccccc2)c1` [Example 114, (3-Benzyloxy-phenyl)-(3H-imidazol-4-ylmethyl)-isopropyl-amine], 0.0041 µM.

In the case of `CC(C)N(Cc1cnc[nH]1)c1cccc(OC(F)(F)F)c1` [Example 115, (3H-Imidazol-4-ylmethyl)-isopropyl-(3-trifluoromethoxy-phenyl)-amine], the Ki was determined as 0.009 µM. The value for `CC(C)N(Cc1cnc[nH]1)c1cccc(Oc2ccccc2)c1` [Example 123, (3H-Imidazol-4-ylmethyl)-isopropyl-(3-phenoxy-phenyl)-amine] was 0.0021 µM; that for `CC(C)N(Cc1cnc[nH]1)c1cccc(OC(F)(F)C(F)F)c1` [Example 125, (3H-Imidazol-4-ylmethyl)-isopropyl-[3-(1,1,2,2-tetrafluoro-ethoxy)-phenyl]-amine] was 0.0044 µM.

With `Cc1ccc(N(Cc2cnc[nH]2)C(C)C)cc1Cl` [Example 128, (3-Chloro-4-methyl-phenyl)-(1H-imidazol-4-ylmethyl)-isopropyl-amine], the inhibitory constant (Ki) worked out at 0.0023 µM. Consider `CCN(Cc1cnc[nH]1)c1ccc(C)c(C)c1` [Example 130, (3,4-Dimethyl-phenyl)-ethyl-(1H-imidazol-4-ylmethyl)-amine], for which the Ki turned out to be 0.0039 µM. As for `CC(C)N(Cc1cnc[nH]1)c1ccc(OCc2ccccc2)c(Cl)c1` [Example 133, (4-Benzyloxy-3-chloro-phenyl)-(1H-imidazol-4-ylmethyl)-isopropyl-amine], the figure is 0.0077 µM; as for `CCN(Cc1cnc[nH]1)c1ccc(Oc2ccc(Cl)cc2)c(Cl)c1` [Example 139, [3-Chloro-4-(4-chloro-phenoxy)-phenyl]-ethyl-(1H-imidazol-4-ylmethyl)-amine], 0.0039 µM. As for `CC(C)N(Cc1cnc[nH]1)c1cccc(Cc2ccccc2)c1` [Example 141, (3-Benzyl-phenyl)-(3H-imidazol-4-ylmethyl)-isopropyl-amine], the figure is 0.0015 µM. The value for `CC(C)N(Cc1cnc[nH]1)c1cccc(-c2ccccc2)c1` [Example 142, Biphenyl-3-yl-(3H-imidazol-4-ylmethyl)-isopropyl-amine] was 0.0079 µM; that for `CC(C)N(Cc1cnc[nH]1)c1cccc(Oc2ccc(Cl)cc2)c1` [Example 149, [3-(4-Chloro-phenoxy)-phenyl]-(3H-imidazol-4-ylmethyl)-isopropyl-amine] was 0.0082 µM. As for `c1ccc(Nc2ccc(NCc3cnc[nH]3)cc2)cc1` [Example 155, N-(1H-Imidazol-4-ylmethyl)-N′-phenyl-benzene-1,4-diamine], the Ki came out at 0.0094 µM.

Regarding `CC(C)N(Cc1cnc[nH]1)c1ccc(F)c(Br)c1` [Example 170, (3-Bromo-4-fluoro-phenyl)-(3H-imidazol-4-ylmethyl)-isopropyl-amine], the inhibition constant (Ki) was determined as 0.0025 µM.

For the compound `CN(Cc1cnc[nH]1)c1cccc(Oc2ccccc2)c1` [Example 175, (3H-Imidazol-4-ylmethyl)-methyl-(3-phenoxy-phenyl)-amine], the Ki was 0.0036 µM. The value for `Fc1cc(Cl)cc(NCc2cnc[nH]2)c1` [Example 179, (3-Chloro-5-fluoro-phenyl)-(1H-imidazol-4-ylmethyl)-amine] was 0.0026 µM. In the case of `Fc1cc(NCc2cnc[nH]2)ccc1Br` [Example 181, (4-Bromo-3-fluoro-phenyl)-(1H-imidazol-4-ylmethyl)-amine], the inhibitory constant (Ki) came out at 0.0098 µM. The value for `Fc1ccc(NCc2cnc[nH]2)cc1Br` [Example 183, (3-Bromo-4-fluoro-phenyl)-(3H-imidazol-4-ylmethyl)-amine] was 0.0051 µM; that for `COc1cccc(N(C)Cc2cnc[nH]2)c1` [Example 186, (3H-Imidazol-4-ylmethyl)-(3-methoxy-phenyl)-methyl-amine] was 0.0089 µM; that for `CCN(Cc1cnc[nH]1)c1cccc(Oc2ccccc2)c1` [Example 188, Ethyl-(3H-imidazol-4-ylmethyl)-(3-phenoxy-phenyl)-amine] was 0.0024 µM. As for `CN(Cc1cnc[nH]1)c1cccc(OC(F)F)c1` [Example 189, (3-Difluoromethoxy-phenyl)-(3H-imidazol-4-ylmethyl)-methyl-amine], the figure is 0.0068 µM; as for `CN(Cc1cnc[nH]1)c1cccc(OCc2ccccc2)c1` [Example 190, (3-Benzyloxy-phenyl)-(3H-imidazol-4-ylmethyl)-methyl-amine], 0.0014 µM.
